# How the values were obtained:
# [1] = tested on: panel of eight cancer cell lines; experiment: Cytotoxicity profiling of 26 second generation derivatives (Alamar Blue viability assay, nuclei count); format: cell-based, human
# Method: Cytotoxicity profiling for the 26 newly synthesized benzofuran-4,5-diones derivatives was performed on a panel of eight cancer cell lines.
# The cell lines HL-60 (human acute promyelocytic leukemia), Jurkat (human acute T cell leukemia), Molt3 (acute lymphoblastic leukemia), CWR22 (prostate carcinoma), K562 (human chronic myeloid leukemia lymphoblasts), and Y79 (human retinoblastoma) were obtained from the ATCC, and cultured following ATCC recommendations. The cell line HL-60/RV+ (a P-glycoprotein-overexpressing multi-drug resistant HL-60 variant selected by continuous exposure to vincristine) was described elsewhere (Weisburg J H, Roepe P D, Dzekunov S, Scheinberg D A: Intracellular pH and multidrug resistance regulate complement-mediated cytotoxicity of nucleated human cells. J Biol Chem 1999; 274:10877-10888). The cell line ALL-3 (acute lymphoblastic leukemia isolated from a patient treated at MSKCC and characterized as Philadelphia chromosome positive) was obtained from Dr. Mark Frattini (MSKCC). The viability assay we used in this study is based on the dye resazurin and commercially sold as Alamar Blue (O'Brien J, Wilson I, Orton T, Pognan F: Investigation of the Alamar Blue (resazurin) fluorescent dye for the assessment of mammalian cell cytotoxicity. Eur J Biochem 2000; 267:5421-5426). Cells were added in 45 μL medium to the pre-plated compounds in 5 μL of 1% DMSO (v/v). After 72 h incubation was added 5 μL Alamar Blue. […] Plates were then fixed and nuclei were stained using Hoechst for the nuclear count proliferation assay. Imaging for Hoechst staining of nuclei count were acquired with an IN Cell Analyzer 2000 epifluorescence automated microscope ([…]) (GE Healthcare, Piscataway, N.J.) equipped with a 4× objective, using D360/40 excitation filter (360 nm excitation peak; +/−40 nm bandpass), HQ535/50 emission filter (535 nm emission peak; +/−50 nm bandpass) and Q505LP dichroic, and exposing fields for 200 milliseconds in the blue channel. Image analysis was conducted with the IN Cell Developer 1.7 software (GE Healthcare) using custom-developed analysis modules. The analysis module used for nuclei count performs object segmentation in the blue channel to automatically define and count the number of nuclei. Data is reported as the sum of imaged nuclei.
# In addition of the Alamar Blue viability assay readout, for the adherent cell lines of this panel (CWR22 and Meso47) we performed a direct nuclei count to assess the effect of the novel derivatives on cell proliferation.
# HsPDF [2] = biological target: T1, HsPDF (Homo sapiens, UniProt Q9HBH1); experiment: FLUO functional assay (fluorescamine, substrate fMAHA); format: biochemical; settings: 0.5 μM HsPDF, upper limit 10 μM compound
# T1 construct: A 63 amino acid N-terminally truncated human peptide deformylase (HsPDF); 6His (C); made in house; host or cells: E. coli BL21 (DE3), co-transformed with the GroES/EL chaperone plasmid
# T1 sequence (Q9HBH1 64-243 limits assumed): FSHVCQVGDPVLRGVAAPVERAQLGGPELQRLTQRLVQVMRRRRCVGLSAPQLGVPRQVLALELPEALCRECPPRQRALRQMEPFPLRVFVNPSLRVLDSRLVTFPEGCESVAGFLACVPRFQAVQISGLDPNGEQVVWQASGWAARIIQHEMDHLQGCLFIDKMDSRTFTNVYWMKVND
# Method: High controls consisted of 1% DMSO (v/v). […] The deformylation reaction mixture was incubated for one hour at room temperature. A separate set of plates containing 3 μL of fluorescamine at 1 mg/mL in 100% DMSO was prepared for the labeling step. Then, 17 μL of the reaction mixture from the original set of plates was transferred to the plates containing the fluorescamine solution for the labeling step. The readout was performed on a Perkin Elmer VICTOR^3 V™ Multi label counter, using an excitation wavelength of 355 nm, and an emission wavelength of 460 nm. […] Compounds inducing a variation of fluorescence greater than 20% were flagged as optically active compounds.
# High controls consisted of 1% DMSO (v/v). […] The deformylation reaction mixture was incubated for one hour at room temperature. A separate set of plates containing 3 μL of fluorescamine at 1 mg/mL in 100% DMSO was prepared for the labeling step. Then, 17 μL of the reaction mixture from the original set of plates was transferred to the plates containing the fluorescamine solution for the labeling step. The readout was performed on a Perkin Elmer VICTOR3 V™ Multi label counter, using an excitation wavelength of 355 nm, and an emission wavelength of 460 nm.
# HsPDF [3] = biological target: T2, HsPDF (Homo sapiens, UniProt Q9HBH1); experiment: HsPDF IC50
# T2 construct: A 63 amino acid N-terminally truncated human peptide deformylase (HsPDF); 6His (C); made in house; host or cells: E. coli BL21 (DE3), co-transformed with the GroES/EL chaperone plasmid
# Excerpt: Table printed on a drawing sheet, Figure 7
# Head of the field: HsPDF IC50
# The patent's description of the figure: FIG. 7. Cytotoxicity profiling for the thirty-three (33) derivatives of benzofuran-4,5-diones toward […]. The IC50 in μM for each compound toward each cell line is summarized as a heat map.
# Where the first naming reader finds the target: head: HsPDF IC50
# EcPDF [4] = tested on: EcPDF
# Method: Head of the field: EcPDF %I 10uM
# (§4) Specificity profiling of the derivatives of benzofuran-4,5-diones.
# Where the first naming reader finds the target: head: EcPDF %I 10uM
# EcPDF [5] = tested on: EcPDF; remark: listed apart in the source
# Method: Head of the field: EcPDF %I 100uM
# as §4
# Where the first naming reader finds the target: head: EcPDF %I 100uM
# APN = APN %I 100uM
# Method: (§1) Table printed on a drawing sheet, Figure 5
# Head of the field: APN %I 100uM
# (§2) Footnotes: -26 124 % inhibition
# (§3) The patent's description of the figure: FIG. 5.
# Where the first naming reader finds the target: head: APN %I 100uM
# HsPDF [6] = biological target: T1, HsPDF; experiment: FP binding assay (fluorescence polarization, probe SKI 267088), specificity profiling and dose response; settings: for activity toward HsPDF, FP assay: specificity profiling / dose response
# Method: Specificity profiling was performed on the newly synthesized benzofuran-4,5-diones using the aforementioned FP profiling method (Antczak et al., J. Biomol. Screen 2008, 13, 285-294).
# Compounds or high/low controls were added to the wells at a volume of 2 μL. […] High controls consisted of 1% DMSO (v/v). MBP-HsPDF or the metalloprotease to be tested was diluted in the assay buffer (25 mM Hepes, 50 mM NaCl, 0.005% Tween 20, pH 7.5), and 10 μL where added to the 384-well microplates (Low Volume Round Bottom NBS Treated, Corning) to achieve a final concentration of 1 μM. After addition of MBP-HsPDF to the tested compounds, the 384-well microplates were preincubated for one hour at room temperature. Then 8 μL of the probe SKI 267088 in solution in assay buffer was added to the wells at a final concentration of 5 nM. After one hour incubation at room temperature, the fluorescence polarization was read using the Amersham LEADseeker™ Multimodality Imaging System equipped with Cy3 excitation/emission filters and Cy3 FP epi-mirror. Quench tests were performed in duplicate by measuring the fluorescence polarization of wells containing the probe, pre- and post-addition of the compounds at 100 μM.
# In each assay, the signal inhibition induced by the compounds was expressed as a percentage compared to high and low controls located on the same plate, as defined as % Inhibition=(high control average−read value)/(high control average−low control average)×100. The dose response was assessed in duplicate and using 12 point doubling dilutions with 100 μM compound concentration as the upper limit. The dose response curve for each set of data was fitted separately, and the two IC50 values obtained were averaged.
# [7] = In vivo toxicity of benzofuran-4,5-diones; settings: i.p. twice a day for four days, 1 to 10 mg/kg, monitored 14 days
# Method: Lead compound SKC-BF-13 and another newly synthesized derivative SKC-BF-02 were selected in order to assess the in vivo toxicity of benzofuran-4,5-diones. Three mice per group were treated with BF-13 at three doses (i.e., 1, 5 and 10 mg/kg) or with SKC-BF-02 at two doses (i.e., 1 and 10 mg/kg). A control group of two mice were treated with the vehicle (i.e., 20% DMSO v/v). Mice were treated twice a day for four days via intraperitoneal administration. Their weight was monitored along with any other signs of toxicity for fourteen days.
# ICR/SCID male mice about three weeks old were used in this study. Three mice per group were treated with BF-13 at three doses (i.e., 1, 5 and 10 mg/kg) or with SKC-BF-02 at two doses (i.e., 1 and 10 mg/kg). A control group of two mice were treated with the vehicle (20% DMSO v/v). Mice were treated twice a day for four days via intraperitoneal administration. Their weight was monitored as well as any other sign of toxicity for 14 days.
# SKI 396848 (SKC-BF-12) and SKI 396840 (SKC-BF-02) were synthesized during the first round of exploratory chemistry to assess the in vivo toxicity of benzofuran-4,5-diones (as shown in FIG. 8). Three ICR/SCID male mice per group were treated with SKI 396848 at three doses: 1, 5 and 10 mg/kg or with SKI 396840 at two doses: 1 and 10 mg/kg. A control group of two mice was treated with the vehicle (20% DMSO v/v). Mice were treated twice a day for four days i.p. Their weight was monitored as well as any other sign of toxicity for 14 days. One treated mouse per group was evaluated by a pathologist.
# MMP-1 = MMP-1 %I 100uM
# Method: as §1
# Head of the field: MMP-1 %I 100uM
# as §2, §3
# Where the first naming reader finds the target: head: MMP-1 %I 100uM
# [8] = tested on: panel of cancer cell lines; experiment: Cytotoxicity assay (Alamar Blue), primary hits and first generation derivatives; format: cell-based, human; settings: first generation, panel of nine cancer cell lines
# Method: Cytotoxicity assays were performed in order to profile the thirty-three newly synthesized benzofuran-4,5-dione derivatives on a panel of nine cancer cell lines. A heat map summarizes the calculated IC50s ([…]). Twelve out of thirteen derivatives potent toward HsPDF were also cytotoxic toward several cancer cell lines (FIG. 7).
# The cell lines HL-60 (human acute promyelocytic leukemia), Jurkat (human acute T cell leukemia), Molt3 (acute lymphoblastic leukemia), CWR22 (prostate carcinoma), HEK293 (human embryonic kidney), K562 (human chronic myeloid leukemia lymphoblasts), Y79 (human retinoblastoma) were obtained from the ATCC, and cultured following ATCC recommendations. The cell line NCEB-1 (human non-hodgkin lymphoma) was obtained from Dr. O'Connor (Sloan-Kettering Institute). The cell line HL-60/RV+ (a P-glycoprotein-overexpressing multi-drug resistant HL-60 variant selected by continuous exposure to vincristine) was described elsewhere (Weisburg et al., J. Biol. Chem. 1999, 274, 10877-10888). The cell line ALL-3 (acute lymphoblastic leukemia isolated from a patient treated at MSKCC and characterized as Philadelphia chromosome positive) was obtained from Dr. Mark Frattini (MSKCC). The assay used for the cytotoxicity studies is based on the dye resazurin and commercially sold as Alamar Blue (O'Brien et al., Eur. J. Biochem. 2000, 267, 5421-5426). […]
smiles,measurement,setting,value
"O=C(O)COc1ccc(C(=O)c2coc3c2C(=O)C(=O)C(Cl)=C3Cl)cc1 [SKI 417521, 2-(4-(6,7-dichloro-4,5-dioxo-4,5-dihydrobenzofuran-3-carbonyl)phenoxy)acetic acid]","activity against the cell lines of the panel, second generation",[1],not active toward most of the cell lines tested
same,IC50,HsPDF [2],0.62 µM
"O=C1C(=O)c2c(C(=O)c3ccccc3)coc2C(Cl)=C1Cl [SKC-BF-09, 3-Benzoyl-6,7-dichloro-benzofuran-4,5-dione]",IC50,HsPDF [3],45 µM
same,EcPDF %I 10uM,EcPDF [4],43 %I
"O=C1C=Cc2occ(C(=O)c3ccccc3)c2C1=O [SKC-BF-01, 3-Benzoyl-benzofuran-4,5-dione]",EcPDF %I 100uM,EcPDF [5],32 %I
same,APN %I 100uM,APN,5 %I
same,IC50,"HsPDF [6]; dose response, 12 point doubling dilutions, upper limit 100 μM",59 µM
same,selectivity for HsPDF in a panel of metalloproteases,"HsPDF [6]; panel HsPDF, EcPDF, APN and MMP-1",most selective HsPDF inhibitors
"O=C(O)COc1ccc(C(=O)c2coc3c2C(=O)C(=O)C(Br)=C3Br)cc1 [SKI 417520, 2-(4-(6,7-dibromo-4,5-dioxo-4,5-dihydrobenzofuran-3-carbonyl)phenoxy)acetic acid]","activity against the cell lines of the panel, second generation",[1],not active toward most of the cell lines tested
same,IC50,HsPDF [2],0.68 µM
"COc1ccc(C(=O)c2coc3c2C(=O)C(=O)C=C3)cc1 [SKC-BF-02, 3-(4-Methoxy-benzoyl)-benzofuran-4,5-dione]",signs of toxicity in vivo (weight and other signs),[7],none of the treatments induced any sign of toxicity
same,signs of toxicity in vivo (weight and other signs),[7]; listed as SKI 396840,None of the treatments were found to induce any signs of toxicity
"COc1ccc(C(=O)c2coc3c2C(=O)C(=O)c2ccccc2-3)cc1 [SKC-NF-01, 3-(4-Methoxy-benzoyl)-naphtho[1,2-b]furan-4,5-dione]",MMP-1 %I 100uM,MMP-1,27 %I
same,EcPDF %I 10uM,EcPDF [4],30 %I
same,EcPDF %I 100uM,EcPDF [5],23 %I
same,APN %I 100uM,APN,22 %I
same,"activity toward HsPDF, FP assay",HsPDF [6],inactive
"COc1ccc(C(=O)c2coc3c2C(=O)C(=O)C(Cl)=C3Cl)cc1OC [SKC-BF-10, 6,7-Dichloro-3-(3,4-dimethoxy-benzoyl)-benzofuran-4,5-dione]",MMP-1 %I 100uM,MMP-1,46 %I
same,EcPDF %I 10uM,EcPDF [4],24 %I
same,"activity toward HsPDF, FP assay",HsPDF [6],potent HsPDF inhibitor
same,cytotoxicity toward cancer cell lines,[8],not very active toward any cancer cell line tested
"COc1ccc(C(=O)c2coc3c2C(=O)C(=O)C(Cl)=C3)cc1 [SKC-BF-04, 6-Chloro-3-(4-methoxybenzoyl)-benzofuran-4,5-dione]",IC50,HsPDF [3],40 µM
same,EcPDF %I 10uM,EcPDF [4],-6 %I
"O=C1C(=O)c2c(C(=O)c3ccc(C(=O)O)cc3)coc2C(Cl)=C1Cl [SKI 417519, 4-(6,7-dichloro-4,5-dioxo-4,5-dihydrobenzofuran-3-carbonyl)benzoic acid]","activity against the cell lines of the panel, second generation",[1],not active toward most of the cell lines tested
same,IC50,HsPDF [2],0.69 µM

# Source: patent publication US8614237B2, “Benzofuran-4,5-diones as selective peptide deformylase inhibitors” (Sloan-Kettering Institute for Cancer Research, priority 2009, dated 2013)
